Data: PubChem BioAssay AID1259407 (Chemical Carcinogenesis Research Information System (CCRIS), 2018)
Activity calls are given as the source filed them. The rule behind the calls is not given here.

Test system: CCRIS mutagenicity, Ames/micronucleus/aberration tests
Experiment: CCRIS mutagenicity studies

## Nc1ccc(-c2ccc(N)c(Cl)c2)cc1Cl
Test System: AMES SALMONELLA TYPHIMURIUM, Strain/Indicator: TA98(1,8-DNP6), Metabolic Activation: NONE, Method: STANDARD PLATE
  mutagenic call: active; positive
Test System: AMES SALMONELLA TYPHIMURIUM, Strain/Indicator: TA98(1,8-DNP6), Metabolic Activation: S-9, Method: STANDARD PLATE
  mutagenic call: active; positive
Test System: AMES SALMONELLA TYPHIMURIUM, Strain/Indicator: TA98/1,8-DNP6, Metabolic Activation: HAMSTER, LIVER, S-9, Method: PREINCUBATION
  mutagenic call: active; positive
Test System: AMES SALMONELLA TYPHIMURIUM, Strain/Indicator: TA98/1,8-DNP6, Metabolic Activation: NONE, Method: PREINCUBATION
  mutagenic call: active; positive
Test System: AMES SALMONELLA TYPHIMURIUM, Strain/Indicator: TA98, Metabolic Activation: HAMSTER, LIVER, S-9, AROCLOR 1254, Method: PREINCUBATION
  mutagenic call: active; positive
Test System: AMES SALMONELLA TYPHIMURIUM, Strain/Indicator: TA98, Metabolic Activation: HAMSTER, LIVER, S-9, Method: PREINCUBATION
  mutagenic call: active; positive
Test System: AMES SALMONELLA TYPHIMURIUM, Strain/Indicator: TA98, Metabolic Activation: MOUSE, LIVER, S-9, Method: STANDARD PLATE
  mutagenic call: active; positive
Test System: AMES SALMONELLA TYPHIMURIUM, Strain/Indicator: TA98, Metabolic Activation: NONE, Method: PREINCUBATION
  mutagenic call: active; positive
Test System: AMES SALMONELLA TYPHIMURIUM, Strain/Indicator: TA98, Metabolic Activation: NONE, Method: STANDARD PLATE
  mutagenic call: active; positive
Test System: AMES SALMONELLA TYPHIMURIUM, Strain/Indicator: TA98, Metabolic Activation: RAT LIVER S-9, AROCLOR 1254, Method: PREINCUBATION
  mutagenic call: active; positive
Test System: AMES SALMONELLA TYPHIMURIUM, Strain/Indicator: TA98, Metabolic Activation: RAT, LIVER, S-9, AROCLOR 1254, Method: PREINCUBATION
  mutagenic call: active; positive
Test System: AMES SALMONELLA TYPHIMURIUM, Strain/Indicator: TA98, Metabolic Activation: RAT, LIVER, S-9, AROCLOR 1254, Method: STANDARD PLATE
  mutagenic call: active; positive
Test System: AMES SALMONELLA TYPHIMURIUM, Strain/Indicator: TA98, Metabolic Activation: S-9, Method: STANDARD PLATE
  mutagenic call: active; positive
Test System: AMES SALMONELLA TYPHIMURIUM, Strain/Indicator: TA100, Metabolic Activation: HAMSTER, LIVER, S-9, AROCLOR 1254, Method: PREINCUBATION
  mutagenic call: active; positive
Test System: AMES SALMONELLA TYPHIMURIUM, Strain/Indicator: TA100, Metabolic Activation: NONE, Method: PREINCUBATION
  mutagenic call: inactive; negative
Test System: AMES SALMONELLA TYPHIMURIUM, Strain/Indicator: TA100, Metabolic Activation: NONE, Method: STANDARD PLATE
  mutagenic call: inactive; negative
Test System: AMES SALMONELLA TYPHIMURIUM, Strain/Indicator: TA100, Metabolic Activation: RAT LIVER S-9, AROCLOR 1254, Method: PREINCUBATION
  mutagenic call: active; positive
Test System: AMES SALMONELLA TYPHIMURIUM, Strain/Indicator: TA100, Metabolic Activation: RAT, LIVER, S-9, AROCLOR 1254, Method: PREINCUBATION
  mutagenic call: active; positive
Test System: AMES SALMONELLA TYPHIMURIUM, Strain/Indicator: TA100, Metabolic Activation: RAT, LIVER, S-9, AROCLOR 1254, Method: STANDARD PLATE
  mutagenic call: active; positive
Test System: AMES SALMONELLA TYPHIMURIUM, Strain/Indicator: TA100, Metabolic Activation: S-9, Method: STANDARD PLATE
  mutagenic call: active; positive
Test System: AMES SALMONELLA TYPHIMURIUM, Strain/Indicator: TA1535, Metabolic Activation: HAMSTER, LIVER, S-9, AROCLOR 1254, Method: PREINCUBATION
  mutagenic call: inactive; negative
Test System: AMES SALMONELLA TYPHIMURIUM, Strain/Indicator: TA1535, Metabolic Activation: NONE, Method: PREINCUBATION
  mutagenic call: inactive; negative
Test System: AMES SALMONELLA TYPHIMURIUM, Strain/Indicator: TA1535, Metabolic Activation: RAT, LIVER, S-9, AROCLOR 1254, Method: PREINCUBATION
  mutagenic call: inactive; negative
Test System: AMES SALMONELLA TYPHIMURIUM, Strain/Indicator: TA1535, Metabolic Activation: RAT, LIVER, S-9, AROCLOR 1254, Method: STANDARD PLATE
  mutagenic call: active; positive
Test System: AMES SALMONELLA TYPHIMURIUM, Strain/Indicator: TA1537, Metabolic Activation: HAMSTER, LIVER, S-9, AROCLOR 1254, Method: PREINCUBATION
  mutagenic call: active; positive
Test System: AMES SALMONELLA TYPHIMURIUM, Strain/Indicator: TA1537, Metabolic Activation: NONE, Method: PREINCUBATION
  mutagenic call: inactive; negative
Test System: AMES SALMONELLA TYPHIMURIUM, Strain/Indicator: TA1537, Metabolic Activation: RAT, LIVER, S-9, AROCLOR 1254, Method: PREINCUBATION
  mutagenic call: active; positive
Test System: AMES SALMONELLA TYPHIMURIUM, Strain/Indicator: TA1537, Metabolic Activation: RAT, LIVER, S-9, PHENOBARBITAL, Method: STANDARD PLATE
  mutagenic call: active; positive
Test System: AMES SALMONELLA TYPHIMURIUM, Strain/Indicator: TA1538, Metabolic Activation: HAMSTER, LIVER, S-9, Method: STANDARD PLATE
  mutagenic call: active; positive
Test System: AMES SALMONELLA TYPHIMURIUM, Strain/Indicator: TA1538, Metabolic Activation: NONE, Method: STANDARD PLATE
  mutagenic call: active; positive
Test System: AMES SALMONELLA TYPHIMURIUM, Strain/Indicator: TA1538, Metabolic Activation: RAT, LIVER, S-9, AROCLOR 1254, Method: STANDARD PLATE
  mutagenic call: active; positive
Test System: AMES SALMONELLA TYPHIMURIUM, Strain/Indicator: TA1538, Metabolic Activation: RAT, LIVER, S-9, PHENOBARBITAL, Method: STANDARD PLATE
  mutagenic call: active; positive
Test System: Ames Salmonella typhimurium, Strain/Indicator: TA102, Metabolic Activation: None, Method: Preincubation
  mutagenic call: active; positive
Test System: Ames Salmonella typhimurium, Strain/Indicator: TA102, Metabolic Activation: Rat, liver, S-9, Aroclor 1254, 4%, Method: Preincubation
  mutagenic call: active; positive
Test System: UDS HUMAN FIBROBLASTS, Strain/Indicator: THY INCORP (NON-S-PHASE), Metabolic Activation: NONE, Method: LIQUID SCINTILLATION COUNTING
  mutagenic call: active; positive
